From patent publication US9050341B2, “Methods of treating drug resistant and other tumors by administering 6,7-dialkoxy quinazoline derivatives” (NATCO PHARMA LIMITED, priority 2009, dated 2015)

Experiments:
Test in all cases: KinomeScan kinase profiling
Type in all cases: binding
TLK1 = target: T1, TLK1 (Homo sapiens, UniProt Q9UKI8)
T1 construct: purchased Ambit Biosciences Corp (KinomeScan); host or cells: E. coli host derived from the BL21 strain (T7 phage lysate)
Method in brief: (§1)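 Kinases were expressed as T7 phage fusions in a BL21-derived E. coli host and the cleared lysates were used. Ligand beads were blocked with biotin and buffer (1% BSA, 0.05% Tween 20, 1 mM DTT). Compounds came from 40× DMSO stocks, and phage in the eluates was titred by qPCR.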

CDC2L2 = target: T2, CDC2L2 (Homo sapiens, UniProt Q9UQ88)
T2 construct: host or cells: T7 phage in E. coli (BL21-derived)
Method in brief: as §1

PRKR = target: T3, PRKR (Homo sapiens, UniProt P19525)
T3 construct: purchased Ambit Biosciences Corp (KinomeScan); host or cells: E. coli host derived from BL21, infected with T7 phage
Method in brief: as §1

JNK3 = target: T4, JNK3 (Homo sapiens, UniProt P53779)
T4 construct: host or cells: T7 phage in E. coli host derived from BL21
Method in brief: as §1

CSNK1A1L = target: T5, CSNK1A1L (Homo sapiens, UniProt Q8N752)
T5 construct: host or cells: T7 phage in E. coli (BL21-derived)
T5 sequence (Q8N752 whole entry): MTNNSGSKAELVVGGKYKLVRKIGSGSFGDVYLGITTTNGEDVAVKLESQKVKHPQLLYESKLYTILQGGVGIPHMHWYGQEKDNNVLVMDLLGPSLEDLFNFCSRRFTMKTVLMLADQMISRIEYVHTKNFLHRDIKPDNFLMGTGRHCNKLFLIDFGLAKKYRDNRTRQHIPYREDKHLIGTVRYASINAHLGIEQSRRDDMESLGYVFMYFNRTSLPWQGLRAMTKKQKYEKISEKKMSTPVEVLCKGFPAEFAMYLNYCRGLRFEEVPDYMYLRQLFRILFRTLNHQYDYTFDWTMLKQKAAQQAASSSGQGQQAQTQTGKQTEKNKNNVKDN
Method in brief: as §1

FGFR3 = target: T6, FGFR3 (Homo sapiens, UniProt P22607)
T6 construct: host or cells: E. coli host derived from BL21, infected with T7 phage
T6 sequence (P22607 23-806): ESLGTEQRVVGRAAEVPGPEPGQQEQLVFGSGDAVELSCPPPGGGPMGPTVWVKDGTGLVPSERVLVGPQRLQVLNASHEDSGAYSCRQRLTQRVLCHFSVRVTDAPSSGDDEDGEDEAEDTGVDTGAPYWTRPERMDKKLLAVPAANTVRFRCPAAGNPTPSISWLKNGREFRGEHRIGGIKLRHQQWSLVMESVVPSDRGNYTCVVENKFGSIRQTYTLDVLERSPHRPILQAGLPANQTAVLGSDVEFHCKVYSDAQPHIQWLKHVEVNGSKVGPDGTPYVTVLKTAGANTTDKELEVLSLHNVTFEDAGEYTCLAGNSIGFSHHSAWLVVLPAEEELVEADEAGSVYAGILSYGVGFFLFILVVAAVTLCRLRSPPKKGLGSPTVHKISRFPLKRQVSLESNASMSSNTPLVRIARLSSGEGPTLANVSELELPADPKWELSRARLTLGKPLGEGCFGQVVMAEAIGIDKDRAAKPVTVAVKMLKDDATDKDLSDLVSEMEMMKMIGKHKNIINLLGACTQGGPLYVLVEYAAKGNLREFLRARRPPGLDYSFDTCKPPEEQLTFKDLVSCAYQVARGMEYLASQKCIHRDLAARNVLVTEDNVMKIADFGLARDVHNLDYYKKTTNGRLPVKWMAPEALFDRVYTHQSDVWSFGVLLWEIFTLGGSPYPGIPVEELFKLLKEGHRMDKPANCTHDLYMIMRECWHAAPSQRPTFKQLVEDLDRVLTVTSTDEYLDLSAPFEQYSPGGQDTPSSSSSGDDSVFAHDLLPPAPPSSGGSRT
Method in brief: as §1

MEK4 = target: T7, MEK4 (Homo sapiens, UniProt P45985)
T7 construct: host or cells: E. coli derived from BL21, infected with T7 phage
Method in brief: as §1

ACVR2B = target: T8, ACVR2B (Homo sapiens, UniProt Q13705)
T8 construct: host or cells: E. coli host derived from BL21 (T7 phage lysate)
Method in brief: as §1

EGFR (L858R) = target: T9, EGFR (L858R) (Homo sapiens, UniProt P00533, L858R)
T9 construct: host or cells: E. coli host derived from BL21, T7 phage lysate
Method in brief: as §1

YSK1 = target: T10, YSK1 (Homo sapiens, UniProt O00506)
T10 construct: host or cells: E. coli host derived from the BL21 strain, infected with T7 phage
T10 sequence (O00506 whole entry): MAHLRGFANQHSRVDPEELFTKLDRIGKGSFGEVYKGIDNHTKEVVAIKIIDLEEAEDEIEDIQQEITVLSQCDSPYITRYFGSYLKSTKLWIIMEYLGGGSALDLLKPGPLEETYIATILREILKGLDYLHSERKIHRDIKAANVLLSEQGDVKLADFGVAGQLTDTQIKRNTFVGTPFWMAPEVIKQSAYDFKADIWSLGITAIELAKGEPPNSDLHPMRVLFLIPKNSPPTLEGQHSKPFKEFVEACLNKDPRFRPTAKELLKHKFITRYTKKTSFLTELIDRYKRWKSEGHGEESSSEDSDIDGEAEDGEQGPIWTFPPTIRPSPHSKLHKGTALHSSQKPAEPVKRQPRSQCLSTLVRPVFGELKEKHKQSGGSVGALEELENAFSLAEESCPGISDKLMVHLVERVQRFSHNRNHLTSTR
Method in brief: as §1

PIK3CB = target: T11, PIK3CB (Homo sapiens, UniProt P42338)
T11 construct: host or cells: E. coli host derived from the BL21 strain, infected with T7 phage
T11 sequence (P42338 whole entry): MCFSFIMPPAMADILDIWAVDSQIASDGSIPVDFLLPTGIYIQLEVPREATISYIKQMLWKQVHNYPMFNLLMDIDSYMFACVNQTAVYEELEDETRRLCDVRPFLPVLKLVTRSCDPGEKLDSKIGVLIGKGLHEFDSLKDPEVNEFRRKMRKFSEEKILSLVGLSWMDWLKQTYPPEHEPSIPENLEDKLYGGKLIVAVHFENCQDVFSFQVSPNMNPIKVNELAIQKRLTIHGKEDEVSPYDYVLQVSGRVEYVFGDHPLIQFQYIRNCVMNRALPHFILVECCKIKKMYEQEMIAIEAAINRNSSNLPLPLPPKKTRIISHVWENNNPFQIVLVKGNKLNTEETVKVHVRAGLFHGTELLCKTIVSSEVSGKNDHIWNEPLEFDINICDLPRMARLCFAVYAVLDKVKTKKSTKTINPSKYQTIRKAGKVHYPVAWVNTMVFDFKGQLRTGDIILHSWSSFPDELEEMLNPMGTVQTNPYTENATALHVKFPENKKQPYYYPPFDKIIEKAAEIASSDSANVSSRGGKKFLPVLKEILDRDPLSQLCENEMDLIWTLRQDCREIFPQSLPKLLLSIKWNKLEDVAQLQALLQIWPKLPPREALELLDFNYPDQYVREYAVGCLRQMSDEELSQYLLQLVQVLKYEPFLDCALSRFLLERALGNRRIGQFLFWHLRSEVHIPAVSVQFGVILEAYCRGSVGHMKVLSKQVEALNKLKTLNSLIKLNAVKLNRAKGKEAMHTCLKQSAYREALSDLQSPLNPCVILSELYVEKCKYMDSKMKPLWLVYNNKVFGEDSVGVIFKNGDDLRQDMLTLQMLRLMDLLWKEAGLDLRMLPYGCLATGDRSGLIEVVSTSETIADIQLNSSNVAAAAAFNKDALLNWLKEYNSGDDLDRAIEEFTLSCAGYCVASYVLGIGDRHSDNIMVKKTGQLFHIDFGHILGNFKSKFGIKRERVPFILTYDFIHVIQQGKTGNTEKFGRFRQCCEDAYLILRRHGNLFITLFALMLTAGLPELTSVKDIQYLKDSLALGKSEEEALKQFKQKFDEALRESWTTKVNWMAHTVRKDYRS
Method in brief: as §1

[1] = target: T12, TYK2 (JH2domain-pseudokinase) (Homo sapiens, UniProt P29597)
T12 construct: TYK2 (JH2domain-pseudokinase); purchased Ambit Biosciences Corp (KinomeScan); host or cells: E. coli host derived from the BL21 strain (T7 phage lysate)
T12 sequence (P29597 589-875 limits assumed): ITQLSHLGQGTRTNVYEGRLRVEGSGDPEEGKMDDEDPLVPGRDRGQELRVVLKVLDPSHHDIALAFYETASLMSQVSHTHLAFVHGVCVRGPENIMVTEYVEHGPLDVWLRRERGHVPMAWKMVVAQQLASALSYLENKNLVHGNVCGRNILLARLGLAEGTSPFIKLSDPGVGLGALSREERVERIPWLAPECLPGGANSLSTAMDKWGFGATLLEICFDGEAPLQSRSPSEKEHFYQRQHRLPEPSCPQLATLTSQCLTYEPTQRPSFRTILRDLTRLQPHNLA
Method in brief: as §1

MARK4 = target: T13, MARK4 (Homo sapiens, UniProt Q96L34)
T13 construct: host or cells: E. coli derived from BL21, infected with T7 phage
T13 sequence (Q96L34 whole entry): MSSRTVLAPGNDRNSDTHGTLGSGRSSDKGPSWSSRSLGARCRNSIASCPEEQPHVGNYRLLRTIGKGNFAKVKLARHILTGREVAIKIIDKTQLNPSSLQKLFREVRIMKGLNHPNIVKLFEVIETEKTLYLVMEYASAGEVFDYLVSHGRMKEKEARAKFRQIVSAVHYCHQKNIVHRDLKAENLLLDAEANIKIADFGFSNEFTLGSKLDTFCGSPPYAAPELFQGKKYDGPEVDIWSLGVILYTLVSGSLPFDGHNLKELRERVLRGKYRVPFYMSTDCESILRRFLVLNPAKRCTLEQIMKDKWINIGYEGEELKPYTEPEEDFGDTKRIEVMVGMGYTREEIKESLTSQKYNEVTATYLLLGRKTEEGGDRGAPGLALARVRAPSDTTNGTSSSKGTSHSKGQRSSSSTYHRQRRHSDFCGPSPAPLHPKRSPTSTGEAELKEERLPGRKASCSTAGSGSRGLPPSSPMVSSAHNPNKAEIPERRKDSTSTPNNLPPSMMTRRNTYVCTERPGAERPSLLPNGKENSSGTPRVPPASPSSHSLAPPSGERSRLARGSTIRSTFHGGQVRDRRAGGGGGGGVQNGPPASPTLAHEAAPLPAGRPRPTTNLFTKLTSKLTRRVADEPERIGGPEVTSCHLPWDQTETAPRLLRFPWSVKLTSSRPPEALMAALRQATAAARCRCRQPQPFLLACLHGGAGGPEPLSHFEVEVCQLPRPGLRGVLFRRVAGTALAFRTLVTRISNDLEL
Method in brief: as §1

CDK5 = target: T14, CDK5 (Homo sapiens, UniProt Q00535)
T14 construct: host or cells: T7 phage in E. coli (BL21-derived)
Method in brief: as §1

DMPK = target: T15, DMPK (Homo sapiens, UniProt Q09013)
T15 construct: purchased Ambit Biosciences Corp (KinomeScan); host or cells: T7 phage in E. coli host derived from BL21
Method in brief: as §1

MEK2 = target: T16, MEK2 (Homo sapiens, UniProt P36507)
T16 construct: host or cells: E. coli derived from BL21, infected with T7 phage
Method in brief: as §1

PAK7 = target: T17, PAK7 (Homo sapiens, UniProt Q9P286)
T17 construct: host or cells: E. coli host derived from the BL21 strain, infected with T7 phage
T17 sequence (Q9P286 whole entry): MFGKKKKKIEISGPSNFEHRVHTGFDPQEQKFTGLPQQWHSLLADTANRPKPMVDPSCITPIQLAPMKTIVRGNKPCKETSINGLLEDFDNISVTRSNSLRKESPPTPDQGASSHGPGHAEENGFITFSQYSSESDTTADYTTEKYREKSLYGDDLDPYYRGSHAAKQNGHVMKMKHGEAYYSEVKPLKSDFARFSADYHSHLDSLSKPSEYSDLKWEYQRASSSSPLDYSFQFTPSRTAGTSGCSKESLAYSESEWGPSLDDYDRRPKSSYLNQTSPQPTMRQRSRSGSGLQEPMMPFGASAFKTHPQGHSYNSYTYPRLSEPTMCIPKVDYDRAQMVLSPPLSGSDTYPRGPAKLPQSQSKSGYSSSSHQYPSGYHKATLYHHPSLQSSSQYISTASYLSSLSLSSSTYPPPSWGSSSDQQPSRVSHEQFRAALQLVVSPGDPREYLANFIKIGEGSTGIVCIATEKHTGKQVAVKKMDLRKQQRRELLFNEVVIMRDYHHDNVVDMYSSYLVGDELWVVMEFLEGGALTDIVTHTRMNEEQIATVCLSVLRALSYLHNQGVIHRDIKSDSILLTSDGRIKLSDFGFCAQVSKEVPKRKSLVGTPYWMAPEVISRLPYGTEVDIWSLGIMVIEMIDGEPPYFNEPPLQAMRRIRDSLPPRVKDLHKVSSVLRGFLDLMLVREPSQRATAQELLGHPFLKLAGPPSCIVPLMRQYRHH
Method in brief: as §1

LIMK2 = target: T18, LIMK2 (Homo sapiens, UniProt P53671)
T18 construct: host or cells: T7 phage in E. coli host derived from BL21
Method in brief: as §1

[2] = target: T19, RPS6KA4 (Kin.Dom.-2-C-terminal) (Homo sapiens, UniProt O75676)
T19 construct: RPS6KA4(KIN.DOM.2); host or cells: E. coli host derived from BL21, T7 phage lysate
Method in brief: as §1

WEE1 = target: T20, WEE1 (Homo sapiens, UniProt P30291)
T20 construct: purchased Ambit Biosciences Corp (KinomeScan); host or cells: E. coli host derived from the BL21 strain (T7 phage lysate)
T20 sequence (P30291 whole entry): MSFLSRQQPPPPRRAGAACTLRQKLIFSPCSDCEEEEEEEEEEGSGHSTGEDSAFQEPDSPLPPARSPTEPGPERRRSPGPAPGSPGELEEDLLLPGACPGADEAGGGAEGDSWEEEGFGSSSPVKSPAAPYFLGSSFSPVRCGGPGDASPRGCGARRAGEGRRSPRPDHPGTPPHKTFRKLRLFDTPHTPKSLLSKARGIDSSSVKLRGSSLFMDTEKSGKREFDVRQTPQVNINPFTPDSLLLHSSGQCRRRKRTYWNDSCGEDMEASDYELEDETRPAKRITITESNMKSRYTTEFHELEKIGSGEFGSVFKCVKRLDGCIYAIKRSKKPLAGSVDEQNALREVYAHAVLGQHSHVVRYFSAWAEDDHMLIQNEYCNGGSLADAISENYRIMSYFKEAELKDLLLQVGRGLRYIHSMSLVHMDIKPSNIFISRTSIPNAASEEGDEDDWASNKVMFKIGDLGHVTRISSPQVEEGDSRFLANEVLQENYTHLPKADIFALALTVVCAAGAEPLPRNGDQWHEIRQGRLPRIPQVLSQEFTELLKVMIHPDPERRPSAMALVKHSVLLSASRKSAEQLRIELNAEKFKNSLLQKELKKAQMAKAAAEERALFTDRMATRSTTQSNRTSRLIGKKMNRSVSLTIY
Method in brief: as §1

TXK = target: T21, TXK (Homo sapiens, UniProt P42681)
T21 construct: purchased Ambit Biosciences Corp (KinomeScan); host or cells: E. coli host derived from the BL21 strain (T7 phage lysate)
Method in brief: as §1

LTK = target: T22, LTK (Homo sapiens, UniProt P29376)
T22 construct: host or cells: E. coli derived from BL21, infected with T7 phage
Method in brief: as §1

SMILES: C#Cc1cccc(Nc2ncnc3cc(OC)c(OCCCN4CCOCC4)cc23)c1 [NRC-2694, N-(3-ethylnylphenyl)-7-methoxy-6-[3-(4-morpholinyl)propoxy]-4-quinazolinamine]
- % Ctrl @ 10000 nM (TLK1): 77 % Ctrl
- % Ctrl @ 10000 nM (CDC2L2): 37 % Ctrl
- % Ctrl @ 10000 nM (PRKR): 51 % Ctrl
- % Ctrl @ 10000 nM (JNK3): 77 % Ctrl
- % Ctrl @ 10000 nM (CSNK1A1L): 44 % Ctrl
- % Ctrl @ 10000 nM (FGFR3): 100 % Ctrl
- % Ctrl @ 10000 nM (MEK4): 92 % Ctrl
- % Ctrl @ 10000 nM (ACVR2B): 63 % Ctrl
- % Ctrl @ 10000 nM (EGFR (L858R)): 0 % Ctrl
- % Ctrl @ 10000 nM (YSK1): 69 % Ctrl
- % Ctrl @ 10000 nM (PIK3CB): 100 % Ctrl
- % Ctrl @ 10000 nM [1]: 23 % Ctrl
- % Ctrl @ 10000 nM (MARK4): 100 % Ctrl
- % Ctrl @ 10000 nM (CDK5): 100 % Ctrl
- % Ctrl @ 10000 nM (DMPK): 6.8 % Ctrl
- % Ctrl @ 10000 nM (MEK2): 44 % Ctrl
- % Ctrl @ 10000 nM (PAK7): 63 % Ctrl
- % Ctrl @ 10000 nM (LIMK2): 100 % Ctrl
- % Ctrl @ 10000 nM [2]: 8.9 % Ctrl
- % Ctrl @ 10000 nM (WEE1): 74 % Ctrl
- % Ctrl @ 10000 nM (TXK): 39 % Ctrl
- % Ctrl @ 10000 nM (LTK): 3.8 % Ctrl
